Values quoted from earlier work, collected in article PMC9851200, “Multiparameter phenotypic screening for endogenous TFEB and TFE3 translocation identifies novel chemical series modulating lysosome function” (Autophagy, 2022).

Key:
Design in all cases: method as in original PKIS2 published data
[1] = biological target: kinases (KINOMEscan panel) (Homo sapiens, UniProt Q13705); conditions: kinase ACVR2B; Published KINOMEscan; ref original PKIS2 published data; cited from earlier work
[2] = biological target: T1, kinases (KINOMEscan panel) (Homo sapiens, UniProt Q9NWZ3); conditions: IRAK4; Published KINOMEscan; ref original PKIS2 published data; cited from earlier work
T1 sequence (Q9NWZ3 1-460): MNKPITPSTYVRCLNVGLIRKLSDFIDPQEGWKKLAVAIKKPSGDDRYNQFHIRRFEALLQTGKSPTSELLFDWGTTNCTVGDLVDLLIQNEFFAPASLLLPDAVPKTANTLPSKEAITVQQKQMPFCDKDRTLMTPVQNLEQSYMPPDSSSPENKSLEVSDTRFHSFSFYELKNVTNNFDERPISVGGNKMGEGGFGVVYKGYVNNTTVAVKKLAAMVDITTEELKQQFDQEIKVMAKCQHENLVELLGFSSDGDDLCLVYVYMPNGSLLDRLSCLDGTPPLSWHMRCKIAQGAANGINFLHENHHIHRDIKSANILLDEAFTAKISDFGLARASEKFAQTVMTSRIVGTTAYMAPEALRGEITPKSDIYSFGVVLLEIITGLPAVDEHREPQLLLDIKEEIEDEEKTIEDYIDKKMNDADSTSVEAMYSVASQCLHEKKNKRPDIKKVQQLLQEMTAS

[3] = biological target: kinases (KINOMEscan panel) (Homo sapiens, UniProt P35916); conditions: FLT4; Published KINOMEscan; ref original PKIS2 published data; cited from earlier work
[4] = biological target: kinases (KINOMEscan panel) (Homo sapiens, UniProt O00750); conditions: PIK3C2B; Published KINOMEscan; ref original PKIS2 published data; cited from earlier work
[5] = biological target: T2, kinases (KINOMEscan panel) (Homo sapiens, UniProt Q9H2K8); conditions: kinase TAOK3; Published KINOMEscan; ref original PKIS2 published data; cited from earlier work
T2 sequence (Q9H2K8 1-898): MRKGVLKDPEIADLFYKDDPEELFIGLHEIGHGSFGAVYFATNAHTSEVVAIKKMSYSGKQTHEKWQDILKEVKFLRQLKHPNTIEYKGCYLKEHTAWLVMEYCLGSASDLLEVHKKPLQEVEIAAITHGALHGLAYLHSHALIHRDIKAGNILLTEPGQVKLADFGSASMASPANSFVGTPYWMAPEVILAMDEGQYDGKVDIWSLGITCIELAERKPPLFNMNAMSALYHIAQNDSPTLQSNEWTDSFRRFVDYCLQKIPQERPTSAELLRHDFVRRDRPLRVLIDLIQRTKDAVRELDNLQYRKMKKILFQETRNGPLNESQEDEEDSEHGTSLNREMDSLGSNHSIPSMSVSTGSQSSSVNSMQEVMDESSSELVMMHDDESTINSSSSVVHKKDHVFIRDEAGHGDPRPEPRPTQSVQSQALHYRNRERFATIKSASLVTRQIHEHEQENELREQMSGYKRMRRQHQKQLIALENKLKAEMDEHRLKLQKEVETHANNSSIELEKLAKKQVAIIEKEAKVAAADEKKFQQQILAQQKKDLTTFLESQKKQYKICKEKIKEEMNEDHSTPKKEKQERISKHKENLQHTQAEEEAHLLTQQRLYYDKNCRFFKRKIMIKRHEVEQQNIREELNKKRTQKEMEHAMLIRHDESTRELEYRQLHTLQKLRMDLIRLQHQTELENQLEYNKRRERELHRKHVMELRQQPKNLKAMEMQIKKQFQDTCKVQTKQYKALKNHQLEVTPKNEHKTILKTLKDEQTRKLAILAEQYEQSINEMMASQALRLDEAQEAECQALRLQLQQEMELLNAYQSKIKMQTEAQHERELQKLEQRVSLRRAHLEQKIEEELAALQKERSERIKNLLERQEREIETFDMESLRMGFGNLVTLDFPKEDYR

[6] = biological target: kinases (KINOMEscan panel) (Homo sapiens, UniProt P16591); conditions: FER; Published KINOMEscan; ref original PKIS2 published data; cited from earlier work
[7] = biological target: kinases (KINOMEscan panel) (Homo sapiens, UniProt Q16584); conditions: kinase MAP3K11; Published KINOMEscan; ref original PKIS2 published data; cited from earlier work
[8] = biological target: T3, kinases (KINOMEscan panel) (Homo sapiens, UniProt Q9Y2U5); conditions: MAP3K2; Published KINOMEscan; ref original PKIS2 published data; cited from earlier work
T3 sequence (Q9Y2U5 1-619): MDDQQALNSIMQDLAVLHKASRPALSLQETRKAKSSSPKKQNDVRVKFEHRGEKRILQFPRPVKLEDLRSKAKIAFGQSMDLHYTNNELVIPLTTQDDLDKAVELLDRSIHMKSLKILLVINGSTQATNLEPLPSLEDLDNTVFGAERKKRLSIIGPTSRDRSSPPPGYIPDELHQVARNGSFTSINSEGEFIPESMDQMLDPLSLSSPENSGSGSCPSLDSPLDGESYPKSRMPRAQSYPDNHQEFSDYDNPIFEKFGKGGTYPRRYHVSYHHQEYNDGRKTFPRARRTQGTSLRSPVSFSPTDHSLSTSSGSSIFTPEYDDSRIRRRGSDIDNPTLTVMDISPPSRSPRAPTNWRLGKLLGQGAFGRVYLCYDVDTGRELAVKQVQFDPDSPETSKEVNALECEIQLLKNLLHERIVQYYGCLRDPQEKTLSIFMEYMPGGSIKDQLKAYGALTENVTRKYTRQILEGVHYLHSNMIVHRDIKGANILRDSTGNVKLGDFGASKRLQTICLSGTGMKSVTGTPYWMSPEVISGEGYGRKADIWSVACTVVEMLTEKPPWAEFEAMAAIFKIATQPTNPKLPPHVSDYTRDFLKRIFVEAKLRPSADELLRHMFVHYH

[9] = biological target: kinases (KINOMEscan panel) (Homo sapiens, UniProt P53355); conditions: kinase DAPK1; Published KINOMEscan; ref original PKIS2 published data; cited from earlier work
Sequence of kinases (KINOMEscan panel) (Homo sapiens, UniProt P53355) (P53355 whole entry): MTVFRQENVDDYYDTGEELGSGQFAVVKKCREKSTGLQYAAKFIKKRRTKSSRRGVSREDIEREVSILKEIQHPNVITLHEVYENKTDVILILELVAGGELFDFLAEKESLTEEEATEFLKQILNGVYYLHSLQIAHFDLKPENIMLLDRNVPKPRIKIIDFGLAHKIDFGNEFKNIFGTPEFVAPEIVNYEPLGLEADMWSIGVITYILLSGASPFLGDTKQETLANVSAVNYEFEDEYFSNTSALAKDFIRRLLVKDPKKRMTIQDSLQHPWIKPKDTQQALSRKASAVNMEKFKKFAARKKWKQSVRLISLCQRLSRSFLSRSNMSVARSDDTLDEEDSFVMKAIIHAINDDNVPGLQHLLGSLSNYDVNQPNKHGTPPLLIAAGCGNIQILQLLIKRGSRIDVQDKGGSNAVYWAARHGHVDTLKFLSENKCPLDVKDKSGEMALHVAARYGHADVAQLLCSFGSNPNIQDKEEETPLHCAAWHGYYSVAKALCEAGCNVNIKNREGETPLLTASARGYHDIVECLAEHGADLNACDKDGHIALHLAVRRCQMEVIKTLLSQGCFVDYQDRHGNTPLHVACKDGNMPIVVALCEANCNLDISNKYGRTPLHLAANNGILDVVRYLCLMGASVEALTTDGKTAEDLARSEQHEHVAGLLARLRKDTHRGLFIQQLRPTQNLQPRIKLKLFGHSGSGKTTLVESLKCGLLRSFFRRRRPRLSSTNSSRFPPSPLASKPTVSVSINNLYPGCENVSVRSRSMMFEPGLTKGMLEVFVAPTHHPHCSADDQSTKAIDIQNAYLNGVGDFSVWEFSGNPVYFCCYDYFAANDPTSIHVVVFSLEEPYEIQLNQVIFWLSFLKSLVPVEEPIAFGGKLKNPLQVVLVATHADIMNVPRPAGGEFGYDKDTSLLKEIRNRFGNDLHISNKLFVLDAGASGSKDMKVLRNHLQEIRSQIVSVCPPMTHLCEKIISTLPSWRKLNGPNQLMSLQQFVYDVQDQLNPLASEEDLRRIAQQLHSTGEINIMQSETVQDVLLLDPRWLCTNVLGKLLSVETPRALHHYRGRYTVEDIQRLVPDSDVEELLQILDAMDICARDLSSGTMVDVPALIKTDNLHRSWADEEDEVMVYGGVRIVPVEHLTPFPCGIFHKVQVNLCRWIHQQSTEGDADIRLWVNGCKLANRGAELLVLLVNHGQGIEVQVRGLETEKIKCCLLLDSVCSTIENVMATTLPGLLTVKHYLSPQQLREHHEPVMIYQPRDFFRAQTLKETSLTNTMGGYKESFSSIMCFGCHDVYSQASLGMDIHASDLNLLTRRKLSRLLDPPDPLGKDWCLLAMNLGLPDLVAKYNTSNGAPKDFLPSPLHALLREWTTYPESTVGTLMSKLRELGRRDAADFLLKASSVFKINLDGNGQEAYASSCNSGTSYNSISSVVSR

Sequence of kinases (KINOMEscan panel) (Homo sapiens, UniProt Q16584) (Q16584 whole entry): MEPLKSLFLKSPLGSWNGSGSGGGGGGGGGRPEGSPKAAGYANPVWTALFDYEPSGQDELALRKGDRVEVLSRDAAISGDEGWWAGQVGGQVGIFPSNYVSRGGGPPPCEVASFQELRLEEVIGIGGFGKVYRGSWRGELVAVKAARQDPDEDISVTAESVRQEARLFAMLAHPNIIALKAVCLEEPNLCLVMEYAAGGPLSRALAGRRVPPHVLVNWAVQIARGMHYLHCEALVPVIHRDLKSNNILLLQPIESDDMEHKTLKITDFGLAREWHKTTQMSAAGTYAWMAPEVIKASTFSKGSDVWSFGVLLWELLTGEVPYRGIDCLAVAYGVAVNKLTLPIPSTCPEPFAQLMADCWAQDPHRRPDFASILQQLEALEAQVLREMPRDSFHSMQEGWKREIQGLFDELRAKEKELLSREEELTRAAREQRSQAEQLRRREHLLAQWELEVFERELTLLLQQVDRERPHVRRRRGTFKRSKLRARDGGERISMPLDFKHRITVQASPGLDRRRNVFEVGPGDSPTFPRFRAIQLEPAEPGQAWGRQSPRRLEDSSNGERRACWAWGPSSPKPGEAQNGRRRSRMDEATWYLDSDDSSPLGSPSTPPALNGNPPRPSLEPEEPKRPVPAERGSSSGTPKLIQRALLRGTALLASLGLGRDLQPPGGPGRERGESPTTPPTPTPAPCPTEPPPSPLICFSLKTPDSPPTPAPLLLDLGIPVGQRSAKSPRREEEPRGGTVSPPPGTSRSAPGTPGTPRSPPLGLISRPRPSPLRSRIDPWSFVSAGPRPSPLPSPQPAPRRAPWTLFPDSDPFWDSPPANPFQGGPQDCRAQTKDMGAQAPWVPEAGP
Sequence of kinases (KINOMEscan panel) (Homo sapiens, UniProt P16591) (P16591 whole entry): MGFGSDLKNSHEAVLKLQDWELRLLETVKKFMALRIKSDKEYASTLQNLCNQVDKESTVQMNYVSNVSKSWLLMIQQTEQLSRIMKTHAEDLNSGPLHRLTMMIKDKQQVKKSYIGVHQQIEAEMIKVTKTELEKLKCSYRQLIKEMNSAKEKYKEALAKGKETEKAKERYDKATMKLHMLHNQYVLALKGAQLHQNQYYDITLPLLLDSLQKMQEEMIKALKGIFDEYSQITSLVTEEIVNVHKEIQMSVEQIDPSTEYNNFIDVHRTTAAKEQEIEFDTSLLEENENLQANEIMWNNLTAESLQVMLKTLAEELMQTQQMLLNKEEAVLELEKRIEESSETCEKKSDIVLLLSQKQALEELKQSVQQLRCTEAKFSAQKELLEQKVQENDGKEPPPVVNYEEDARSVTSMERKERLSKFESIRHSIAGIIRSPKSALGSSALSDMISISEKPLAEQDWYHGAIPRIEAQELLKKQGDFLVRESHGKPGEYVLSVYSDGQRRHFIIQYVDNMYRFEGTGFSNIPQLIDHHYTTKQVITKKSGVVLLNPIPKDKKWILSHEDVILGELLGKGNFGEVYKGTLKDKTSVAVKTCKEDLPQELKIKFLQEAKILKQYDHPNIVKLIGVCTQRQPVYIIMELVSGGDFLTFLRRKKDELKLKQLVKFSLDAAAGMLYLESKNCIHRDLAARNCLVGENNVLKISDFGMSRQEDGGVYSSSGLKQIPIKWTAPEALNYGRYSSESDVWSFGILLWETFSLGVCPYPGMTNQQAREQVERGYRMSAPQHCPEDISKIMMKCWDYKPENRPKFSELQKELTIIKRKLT
Sequence of kinases (KINOMEscan panel) (Homo sapiens, UniProt O00750) (O00750 whole entry): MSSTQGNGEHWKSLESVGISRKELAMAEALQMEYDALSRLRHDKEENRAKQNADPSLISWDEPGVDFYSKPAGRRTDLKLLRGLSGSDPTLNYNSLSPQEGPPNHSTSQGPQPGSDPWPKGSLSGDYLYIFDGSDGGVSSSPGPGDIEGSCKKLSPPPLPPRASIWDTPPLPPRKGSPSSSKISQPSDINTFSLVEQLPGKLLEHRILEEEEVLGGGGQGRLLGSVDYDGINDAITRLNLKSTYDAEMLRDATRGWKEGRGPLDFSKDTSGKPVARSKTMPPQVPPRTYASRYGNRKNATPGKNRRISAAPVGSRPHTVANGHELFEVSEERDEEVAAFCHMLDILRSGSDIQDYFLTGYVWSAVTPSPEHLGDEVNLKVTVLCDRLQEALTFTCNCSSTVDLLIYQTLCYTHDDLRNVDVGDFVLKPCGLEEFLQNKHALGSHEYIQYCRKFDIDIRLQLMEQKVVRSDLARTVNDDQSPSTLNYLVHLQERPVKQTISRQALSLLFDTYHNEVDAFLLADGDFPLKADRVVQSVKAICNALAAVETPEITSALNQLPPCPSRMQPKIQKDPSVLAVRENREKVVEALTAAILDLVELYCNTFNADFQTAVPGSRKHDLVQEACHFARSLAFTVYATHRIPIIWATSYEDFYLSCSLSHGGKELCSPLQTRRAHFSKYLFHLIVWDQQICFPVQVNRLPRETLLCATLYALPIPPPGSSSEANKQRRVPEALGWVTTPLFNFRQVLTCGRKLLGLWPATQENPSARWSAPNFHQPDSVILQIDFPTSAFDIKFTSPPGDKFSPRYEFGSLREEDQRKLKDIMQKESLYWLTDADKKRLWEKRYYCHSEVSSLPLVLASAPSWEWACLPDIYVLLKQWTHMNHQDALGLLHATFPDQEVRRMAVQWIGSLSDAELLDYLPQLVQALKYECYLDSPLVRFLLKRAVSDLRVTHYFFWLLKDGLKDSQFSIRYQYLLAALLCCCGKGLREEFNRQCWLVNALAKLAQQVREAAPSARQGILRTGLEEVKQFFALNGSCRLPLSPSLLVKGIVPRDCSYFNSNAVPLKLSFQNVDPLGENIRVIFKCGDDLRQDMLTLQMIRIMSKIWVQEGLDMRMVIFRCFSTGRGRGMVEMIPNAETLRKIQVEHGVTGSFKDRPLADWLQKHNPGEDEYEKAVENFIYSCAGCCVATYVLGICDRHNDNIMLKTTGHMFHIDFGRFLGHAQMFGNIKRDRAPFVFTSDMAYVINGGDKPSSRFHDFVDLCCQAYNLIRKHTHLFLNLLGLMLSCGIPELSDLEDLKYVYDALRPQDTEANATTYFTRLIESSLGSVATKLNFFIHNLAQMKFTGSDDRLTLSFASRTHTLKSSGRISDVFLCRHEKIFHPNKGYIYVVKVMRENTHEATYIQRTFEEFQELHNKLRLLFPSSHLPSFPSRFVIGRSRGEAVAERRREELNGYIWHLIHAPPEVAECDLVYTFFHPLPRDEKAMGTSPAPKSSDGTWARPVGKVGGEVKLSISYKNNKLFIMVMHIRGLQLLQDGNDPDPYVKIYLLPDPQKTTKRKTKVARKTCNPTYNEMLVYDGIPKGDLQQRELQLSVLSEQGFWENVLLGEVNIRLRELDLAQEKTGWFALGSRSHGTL

Q: What does the source list for `Cc1cccc(-c2nc(Nc3ccncc3)c3ccccc3n2)n1` [NK215]?
A: KINOMEscan ACVR2B [1]: 36; KINOMEscan IRAK4 [2]: 0; KINOMEscan FLT4 [3]: 1; KINOMEscan PIK3C2B [4]: 0; KINOMEscan TAOK3 [5]: 0; KINOMEscan FER [6]: 0; KINOMEscan MAP3K11 [7]: 6; KINOMEscan MAP3K2 [8]: 0; KINOMEscan DAPK1 [9]: 0
